Active and inactive are the calls of the source. The rule behind the calls is not given here.
Assays:
MGC-803 [1] = experiment: Induction of apoptosis in human MGC-803 cells assessed as decrease in cIAP-1 level; type: functional, cell-based; settings: dose 5-15 nM, DDE = dose-dependent effect
Mus musculus [2] = experiment: Upregulation of cleaved caspase -3 expression in tumor tissue of BALB/c nude mouse xenografted with human MGC-803 cells at 15 to 30 mg/kg, ip administered once daily for 21 days by Western blotting analysis; type: functional, organism-based; settings: dose 15-30 mg/kg, time 21.0 day
HGC-27 [3] = experiment: Downregulation of FoxO3a expression in human HGC-27 cells incubated for 48 hrs; type: functional, cell-based; settings: dose 10-30 nM, DDE = dose-dependent effect
MGC-803 [4] = experiment: Induction of apoptosis in human MGC-803 cells assessed as decrease in Bcl-2 level; type: functional, cell-based; settings: dose 5-15 nM, DDE = dose-dependent effect
HGC-27 [5] = experiment: Inhibition of ERK signalling pathway in human HGC-27 cells assessed as downregulation of c-Raf phosphorylation at 10 to 30 nM incubated for 48 hrs; type: cell-based; settings: dose 10-30 nM
HGC-27 [6] = experiment: Inhibition of p38 signalling pathway in human HGC-27 cells assessed as reduction in p38 phosphorylation at 10 to 30 nM incubated for 48 hrs; type: cell-based; settings: dose 10-30 nM
MGC-803 [7] = experiment: Inhibition of ERK signalling pathway in human MGC-803 cells assessed as downregulation of ERK1/2 phosphorylation at 5 to 15 nM incubated for 48 hrs; type: cell-based; settings: dose 5-15 nM
HGC-27 [8] = experiment: Induction of apoptosis in human HGC-27 cells assessed as decrease in Bcl-2 level; type: functional, cell-based; settings: dose 10-30 nM, DDE = dose-dependent effect
MDA-MB-231 = experiment: Antiproliferative activity against human MDA-MB-231 cells assessed as reduction in cell viability incubated for 48 hrs by MTT assay; type: functional, cell-based; settings: MDA-MB-231, 48 h
[9] = Toxicity in BALB/c nude mouse xenografted with human MGC-803 cells assessed as pathological changes in spleen at 15 to 30 mg/kg, ip administered once daily for 21 days by Hematoxyin-eosin staining based analysis; type: organism-based; settings: in vivo, 504 h, dose 15-30 mg/kg, time 21 day
MGC-803 [10] = experiment: Inhibition of colony formation in human MGC-803 cells incubated for 7 days by crystal violet staining based analysis; type: functional, cell-based; settings: dose 2-10 nM, time 7.0 day, DDE = dose-dependent effect
MGC-803 [11] = experiment: Antiproliferative activity against human MGC-803 cells assessed as reduction in cell viability incubated for 12 to 48 hrs by MTT assay; type: functional, cell-based; settings: dose 15-30 nM, time 12-48 hrs, DDE = dose-dependent effect
MGC-803 [12] = experiment: Inhibition of ERK signalling pathway in human MGC-803 cells assessed as downregulation of c-Raf phosphorylation at 5 to 15 nM incubated for 48 hrs; type: cell-based; settings: dose 5-15 nM
MGC-803 [13] = experiment: Downregulation of phosphorylated ATF-2 expression in human MGC-803 cells incubated for 48 hrs; type: functional, cell-based; settings: dose 5-15 nM, DDE = dose-dependent effect
NCI-H520 = experiment: Antiproliferative activity against human NCI-H520 cells assessed as reduction in cell viability incubated for 48 hrs by MTT assay; type: functional, cell-based; settings: NCI-H520, 48 h
Mus musculus [14] = experiment: Downregulation of JNK phosphorylation in tumor tissue of BALB/c nude mouse xenografted with human MGC-803 cells at 15 to 30 mg/kg, ip administered once daily for 21 days by Western blotting analysis; type: functional, organism-based; settings: dose 15-30 mg/kg, time 21.0 day
SGC-7901 = experiment: Antiproliferative activity against human SGC-7901 cells assessed as reduction in cell viability incubated for 48 hrs by MTT assay; type: functional, cell-based; settings: SGC-7901, 48 h
[15] = Induction of mitochondria mediated intrinsic apoptosis in human HGC-27 cells assessed as early apoptotic cells at 10 nM measured after 48 hrs by flow cytometry analysis (Rvb= 6.4%); type: functional
[16] = Toxicity in BALB/c nude mouse xenografted with human MGC-803 cells assessed as pathological changes in heart at 15 to 30 mg/kg, ip administered once daily for 21 days by Hematoxyin-eosin staining based analysis; type: organism-based; settings: in vivo, 504 h, dose 15-30 mg/kg, time 21 day
HGC-27 [17] = experiment: Inhibition of ERK signalling pathway in human HGC-27 cells assessed as downregulation of ERK1/2 phosphorylation at 10 to 30 nM incubated for 48 hrs; type: cell-based; settings: dose 10-30 nM
HGC-27 [18] = experiment: Inhibition of ERK signalling pathway in human HGC-27 cells assessed as reduction in downstream substrate MSK1 phosphorylation at 10 to 30 nM incubated for 48 hrs; type: cell-based; settings: dose 10-30 nM
MGC-803 [19] = experiment: Inhibition of p38 signalling pathway in human MGC-803 cells assessed as reduction in downstream substrate HSP-27 phosphorylation at 5 to 15 nM incubated for 48 hrs; type: cell-based; settings: dose 5-15 nM
HGC-27 [20] = experiment: Downregulation of cdc2 phosphorylation at Thr14 residue in human HGC-27 cells at 10 to 30 nM incubated for 48 hrs; type: functional, cell-based; settings: dose 10-30 nM
PC-3 = experiment: Antiproliferative activity against human PC-3 cells assessed as reduction in cell viability incubated for 48 hrs by MTT assay; type: functional, cell-based; settings: PC-3, 48 h
MGC-803 [21] = experiment: Downregulation of vimentin expression in human MGC-803 cells incubated for 48 hrs; type: functional, cell-based; settings: dose 5-15 nM, DDE = dose-dependent effect
HGC-27 [22] = experiment: Downregulation of c-Myc expression in human HGC-27 cells incubated for 48 hrs; type: functional, cell-based; settings: dose 10-30 nM, DDE = dose-dependent effect
HGC-27 [23] = experiment: Induction of apoptosis in human HGC-27 cells assessed as decrease in Mcl-1 level; type: functional, cell-based; settings: dose 10-30 nM, DDE = dose-dependent effect
ECa-109 cell line = experiment: Antiproliferative activity against human EC109 cells assessed as reduction in cell viability incubated for 48 hrs by MTT assay; type: functional, cell-based; settings: ECa-109, 48 h
MGC-803 [24] = experiment: Antiinvasive activity against human MGC-803 cells assessed as reduction in number of cells in membrane incubated for 48 hrs by trans well assay; type: functional, cell-based; settings: dose 5-15 nM, DDE = dose-dependent effect
MGC-803 [25] = experiment: Induction of apoptosis in human MGC-803 cells assessed as nuclear concentration at 5 to 15 nM incubated for 48 hrs by DAPI staining based analysis; type: functional, cell-based; settings: dose 5-15 nM
[26] = Induction of mitochondria mediated intrinsic apoptosis in human MGC-803 cells assessed as early apoptotic cells at 5 nM measured after 48 hrs by flow cytometry analysis (Rvb= 1.6%); type: functional
HGC-27 [27] = experiment: Inhibition of cell migration in human HGC-27 cells assessed as reduction in wound healing rate at 10 to 30 nM incubated for 24 hrs; type: functional, cell-based; settings: dose 10-30 nM
MGC-803 [28] = experiment: Induction of apoptosis in human MGC-803 cells assessed as increase in cleavage caspase 7 level; type: functional, cell-based; settings: dose 5-15 nM, DDE = dose-dependent effect
MGC-803 [29] = experiment: Induction of apoptosis in human MGC-803 cells assessed as upregulation of DR5 level; type: functional, cell-based; settings: dose 5-15 nM, DDE = dose-dependent effect
Mus musculus [30] = experiment: Downregulation of Ki67 expression in tumor tissue of BALB/c nude mouse xenografted with human MGC-803 cells at 15 to 30 mg/kg, ip administered once daily for 21 days by immunohistochemistry analysis; type: functional, organism-based; settings: dose 15-30 mg/kg, time 21.0 day
MGC-803 [31] = experiment: Induction of apoptosis in human MGC-803 cells assessed as decrease in XIAP level; type: functional, cell-based; settings: dose 5-15 nM, DDE = dose-dependent effect
MGC-803 [32] = experiment: Downregulation of cyclin B1 expression in human MGC-803 cells at 5 to 15 nM incubated for 48 hrs; type: functional, cell-based; settings: dose 5-15 nM
HGC-27 [33] = experiment: Inhibition of ERK signalling pathway in human HGC-27 cells assessed as downregulation of MEK1/2 phosphorylation at 10 to 30 nM incubated for 48 hrs; type: cell-based; settings: dose 10-30 nM
HGC-27 [34] = experiment: Induction of apoptosis in human HGC-27 cells assessed as decrease in cIAP-1 level; type: functional, cell-based; settings: dose 10-30 nM, DDE = dose-dependent effect

CN(c1ccc2c(ccn2C)c1)c1cc(=O)oc2ccccc12
Activity (MGC-803 [1]): Dde
Activity (Mus musculus [2]): Active
Activity (HGC-27 [3]): Dde
Activity (MGC-803 [4]): Dde
inhibition (HGC-27 [5]): Active
inhibition (HGC-27 [6]): Active
inhibition (MGC-803 [7]): Active
Activity (HGC-27 [8]): Dde
IC50 (MDA-MB-231): 0.0793 µM
Activity [9]: Non-Toxic
inhibition (MGC-803 [10]): Dde
Activity (MGC-803 [11]): Dde
inhibition (MGC-803 [12]): Active
Activity (MGC-803 [13]): Dde
IC50 (NCI-H520): 0.0334 µM
Activity (Mus musculus [14]): Active
IC50 (SGC-7901): 0.0523 µM
Activity [15]: 8.3%
Activity [16]: Non-Toxic
inhibition (HGC-27 [17]): Active
inhibition (HGC-27 [18]): Active
inhibition (MGC-803 [19]): Active
Activity (HGC-27 [20]): Active
IC50 (PC-3): 0.0349 µM
Activity (MGC-803 [21]): Dde
Activity (HGC-27 [22]): Dde
Activity (HGC-27 [23]): Dde
IC50 (ECa-109 cell line): 0.0338 µM
Activity (MGC-803 [24]): Dde
Activity (MGC-803 [25]): Active
Activity [26]: 1.8%
inhibition (HGC-27 [27]): Active
Activity (MGC-803 [28]): Dde
Activity (MGC-803 [29]): Dde
Activity (Mus musculus [30]): Active
Activity (MGC-803 [31]): Dde
Activity (MGC-803 [32]): Active
inhibition (HGC-27 [33]): Active
Activity (HGC-27 [34]): Dde

— ChEMBL document CHEMBL5137024, “Discovery of novel coumarin-indole derivatives as tubulin polymerization inhibitors with potent anti-gastric cancer activities” (Eur J Med Chem, 2022)
